Key:
[1] = Concentrations of radioactivity in whole blood, plasma, WBC depleted blood and recovered white blood cells after single subcutaneous administration of [3H]-AMTX-100; format: in vivo, rat; set-up: key to Concentration of radioactivity in Recovered White Blood Cells: BLQ: Below limit of accurate quantification; details: 5 mg/kg; for Concentration of radioactivity in WBC depleted blood / Concentration of radioactivity in Whole Blood / Concentration of radioactivity in Plasma / Concentration of radioactivity in Recovered White Blood Cells: rat; for Concentration of radioactivity in Plasma: plasma not depleted of white blood cells; for Concentration of radioactivity in Recovered White Blood Cells: reverse wash of filters; for Cmax, total radioactivity: male non-pigmented rats
Method: [^3H]-NSP labelling. For the main phase of the study, the test protein was prepared, radiolabeled with N-succinimidyl-[2,3-3H]-propionate ([^3H]-NSP) and purified as described below.
Three aliquots of 1.6 mL [^3H]-NSP solution were dispensed into appropriate vials. The solvent was evaporated under a gentle stream of nitrogen gas at ambient temperature. Once enough of the solvent had been evaporated, the three aliquots were combined into one vial and the remaining solvent evaporated until dryness. The residue in the vial was re-suspended in 0.6 mL of 1 mg/mL AMTX-100 by gently vortex mixing to ensure complete mixing of the protein with the labelling reagent. The solutions were allowed to stand at ambient temperature for approximately 1 hour.
The [^3H]-NSP-protein solutions were then purified by reverse phase chromatography techniques and the resulting solution was frozen and lyophilized using a freeze drier. The resulting material was dissolved in 2 mL ethanol:water (50:50) and stored at approximately −20° C. prior to formulation for dose preparation.
Formulation. The required quantities of each radiolabeled test item were combined with the corresponding non-labelled test item as appropriate to achieve a radioactive concentration sufficient to meet the aims of the study. Dose solutions were prepared in PBS buffer pH 7.4, with the intention of administering a total dose volume of […], (2.5 ml/kg, […]).
(§1) Whole blood was collected into tubes containing K2-EDTA as anticoagulant. Following collection, an aliquot of whole blood (approximately 4 mL) was retained for analysis of whole blood and white blood cell (WBC) concentrations. The remaining whole blood samples were processed to plasma. Plasma samples were not depleted of white blood cells.
(§2) AMTX-100 was radiolabeled with 3H at lysine residues and injected into Sprague-Dawley rats in a single dose by seven different routes (intravenous, subcutaneous, topical [skin], intratracheal, intraduodenal, esophageal, and oral). The rats were evaluated at various time points, up to 120 hours, by: a) blood samples were taken for pharmacokinetics (PK) by cardiac puncture; b) rats were frozen and sectioned for QWBA and/or micro-auto-radiography and histology; and c) frozen sections were made and freeze dried and exposed to phosphor-storage imaging plates and tissue radioactivity in images was quantified as tissue: blood ratios.
(§3) For all PK studies, the following definitions were used: WB=whole blood; Plasma=whole blood depleted of red blood cells; WBCD=whole blood depleted of white blood cells in which the whole blood is passed over a Pall Acrodisc filter (about 60% efficient); WBCs=the cells which bind to, and are washed off, the Pall Acrodisc filter.

[2] = Blood partition calculation after single administration of [3H]-AMTX-100; format: in vivo; set-up: Partition coefficient / Non-plasma compartment: unit not given here; details: single intravenous (title), 5 mg/kg, rat
Method: Eight male Sprague Dawley rats each received a single IV administration of [^3H]-AMTX-100 and a terminal sample of whole blood (each approximately 5-10 mL) was collected via cardiac puncture under isofluorane anesthesia from a single rat at the following time points: […]
as §1

[3] = Pharmacokinetics of [3H]-AMTX-100 after multiple routes of administration; format: in vivo, rat; details: rat
Method: as §2, §3

Structure (SMILES): CSCC[C@@H]1NC(=O)[C@H](CC(C)C)NC(=O)[C@H](CCCCN)NC(=O)[C@H](CCC(N)=O)CC(=O)[C@H](CCCNC(=N)N)NC(=O)[C@H](CCCCN)NC(=O)[C@H](CCCNC(=N)N)NC(=O)[C@H](CCC(N)=O)NC(=O)[C@H](C(C)C)NC(=O)[C@@H](NC(=O)[C@@H]2CCCN2C(=O)[C@H](C)NC(=O)[C@H](CC(C)C)NC(=O)[C@H](CC(C)C)NC(=O)[C@H](C)NC(=O)[C@H](CC(C)C)NC(=O)[C@H](CC(C)C)NC(=O)[C@@H](NC(=O)[C@H](C)NC(=O)[C@@H]2CCCN2C(=O)[C@H](CC(C)C)NC(=O)[C@H](CC(C)C)NC(=O)[C@H](C)NC(=O)[C@@H](NC(=O)[C@H](C)NC(=O)[C@H](C)N)C(C)C)C(C)C)CSSC[C@@H](C(=O)O)NC(=O)[C@@H]2CCCN2C1=O [[^3H]-AMTX-100]
- Concentration of radioactivity in WBC depleted blood ([1]; 1 h): 0.015 μg equivalents/mL
- Concentration of radioactivity in Whole Blood ([1]; 1 h): 0.081 μg equivalents/mL
- Concentration of radioactivity in Plasma ([1]; 1 h): 0.110 μg equivalents/mL
- Concentration of radioactivity in Recovered White Blood Cells ([1]; 1 h): BLQ
- Concentration of radioactivity in WBC depleted blood ([1]; 2 h): 0.011 μg equivalents/mL
- Concentration of radioactivity in Whole Blood ([1]; 2 h): 0.059^3 μg equivalents/mL
- Concentration of radioactivity in Plasma ([1]; 2 h): 0.084 μg equivalents/mL
- Concentration of radioactivity in Recovered White Blood Cells ([1]; 2 h): BLQ
- Concentration of radioactivity in WBC depleted blood ([1]; 4 h): 0.011 μg equivalents/mL
- Concentration of radioactivity in Whole Blood ([1]; 4 h): 0.054 μg equivalents/mL
- Concentration of radioactivity in Plasma ([1]; 4 h): 0.068 μg equivalents/mL
- Concentration of radioactivity in Recovered White Blood Cells ([1]; 4 h): BLQ
- Concentration of radioactivity in WBC depleted blood ([1]; 8 h): 0.011 μg equivalents/mL
- Concentration of radioactivity in Whole Blood ([1]; 8 h): 0.070 μg equivalents/mL
- Concentration of radioactivity in Plasma ([1]; 8 h): 0.090 μg equivalents/mL
- Concentration of radioactivity in Recovered White Blood Cells ([1]; 8 h): BLQ
- Concentration of radioactivity in WBC depleted blood ([1]; 24 h): 0.021 μg equivalents/mL
- Concentration of radioactivity in Whole Blood ([1]; 24 h): 0.120 μg equivalents/mL
- Concentration of radioactivity in Plasma ([1]; 24 h): 0.146 μg equivalents/mL
- Concentration of radioactivity in Recovered White Blood Cells ([1]; 24 h): BLQ
- Concentration of radioactivity in WBC depleted blood ([1]; 48 h): 0.033 μg equivalents/mL
- Concentration of radioactivity in Whole Blood ([1]; 48 h): 0.186 μg equivalents/mL
- Concentration of radioactivity in Plasma ([1]; 48 h): 0.221 μg equivalents/mL
- Concentration of radioactivity in Recovered White Blood Cells ([1]; 48 h): BLQ
- Cmax, total radioactivity ([1]; Plasma): 221 ng/mL
- Cmax, total radioactivity ([1]; WBCD blood): 33 ng/mL
- Cmax, total radioactivity ([1]; Whole blood): 186 ng/mL
- Blood ([2]; 1 h): 0.081 µg/mL
- Non-plasma compartment ([2]; 1 h): 11.7
- Partition coefficient ([2]; 1 h): 88.3
- Plasma ([2]; 1 h): 0.110 µg/mL
- Blood ([2]; 2 h): 0.059^1 μg/mL
- Non-plasma compartment ([2]; 2 h): 20.3
- Partition coefficient ([2]; 2 h): 79.7
- Plasma ([2]; 2 h): 0.084 µg/mL
- Blood ([2]; 4 h): 0.054 µg/mL
- Non-plasma compartment ([2]; 4 h): 24.4
- Partition coefficient ([2]; 4 h): 75.6
- Plasma ([2]; 4 h): 0.068 µg/mL
- Blood ([2]; 8 h): 0.070 µg/mL
- Non-plasma compartment ([2]; 8 h): 22.9
- Partition coefficient ([2]; 8 h): 77.1
- Plasma ([2]; 8 h): 0.090 µg/mL
- Blood ([2]; 24 h): 0.120 µg/mL
- Non-plasma compartment ([2]; 24 h): 27.0
- Partition coefficient ([2]; 24 h): 73.0
- Plasma ([2]; 24 h): 0.146 µg/mL
- Blood ([2]; 48 h): 0.186 µg/mL
- Non-plasma compartment ([2]; 48 h): 28.7
- Partition coefficient ([2]; 48 h): 71.3
- Plasma ([2]; 48 h): 0.221 µg/mL
- Specific target cells in blood [3]: WBCs and not RBCs are the specific target
- Residence time in plasma ([3]; Sub-Q, single dose): > 672 h
- Presence in tissue ([3]; after a single dose): found in tissue in which WBCs congregate, but not cardiac or skeletal muscle tissue
- Entry into the bloodstream ([3]; all routes of administration): by all routes of administration makes its way into the bloodstream
- Resistance to degradation ([3]; esophageal administration, L-amino acid version): resistant to degradation
